Assay results published in paper PMC8214093, “Structural basis of KdpD histidine kinase binding to the second messenger c-di-AMP” (The Journal of Biological Chemistry, 2021).
“And” between values parts separate entries of the source, which are not always exact repeats. Equal entries are not always repeated.

Legend:
USPSp-WT = format: binding, Streptococcus pneumoniae; details: MST, change in thermophoretic mobility, read-out: Dissociation Constant (KD) ± Standard Deviation
USPSa-WT [1] = molecular target: T1, USPSa-WT (Staphylococcus aureus, UniProt A0A7U7EVR3); experiment: biochemical; format: binding; details: His6-USPSa WT, MST, changes in initial fluorescence; for Dissociation Constant (KD) ± Standard Deviation: columns without unit
Experimental: For labeling, the proteins were diluted to a concentration of 800 nM in binding buffer (50 mM potassium phosphate, pH 8.0, 800 mM NaCl, and 0.05% Tween 20), mixed with an equal volume of RED-Tris-NTA dye (80 nM), and incubated on ice in the dark for 30 min. […] The labeled proteins and the ligand dilutions were then mixed in a 1:1 ratio and incubated on ice in the dark for 30 min.
The samples were then loaded into Monolith standard-treated capillaries in triplicate, and the changes in fluorescence were measured with 40% LED power and 20% IR-laser power for an on-time of 20-s at 23 °C. To determine the binding affinity, the ligand-dependent changes in the intensity of the initial fluorescence, or the thermophoretic mobility, were analyzed according to the law of mass action in a standard fitting mode of MO.Affinity analysis software (version 2.3). To exclude the possibility of nonspecific binding of the ligand to the His6-tag (on USPSa) or ligand-induced USP adsorption to labware or due to aggregation, we performed His6-peptide and EDTA tests, respectively ([91]). […] In the EDTA test, the binding buffer additionally contained 50 mM EDTA to disrupt the interaction between His6-USP and the RED-Tris-NTA dye.

[2] = tested on: maltose-binding protein–tagged version of the USPSa Y271A mutant; parameters: method as in PMID 26195599; details: cited from earlier work
USPSa2-WT = USPSa2-WT (Staphylococcus aureus, UniProt Q5HK61); experiment: biochemical; format: binding; details: MST, change in thermophoretic mobility, read-out: Dissociation Constant (KD) ± Standard Deviation
[3] = molecular target: maltose-binding protein–tagged USP; details: differential radial capillary action of ligand assay, read-out: previously reported KD; cited from earlier work
USPSa-S246A = molecular target: T2, USPSa-S246A (Staphylococcus aureus, UniProt A0A7U7EVR3, S246A); experiment: MicroScale Thermophoresis (initial fluorescence change) nucleotide binding; details: S246A mutant; MST, initial fluorescence; read-out: Dissociation Constant (KD) ± Standard Deviation
T2 sequence (A0A7U7EVR3 213-364 S246A): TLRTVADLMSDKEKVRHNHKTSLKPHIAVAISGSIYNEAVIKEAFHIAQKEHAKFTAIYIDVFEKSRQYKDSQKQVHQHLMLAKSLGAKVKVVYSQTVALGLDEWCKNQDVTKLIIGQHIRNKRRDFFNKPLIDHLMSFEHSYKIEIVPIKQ
Experimental: (§1) The ligand-binding specificity of USPSa, the role of USPSa residues in c-di-AMP binding, and the c-di-AMP binding affinity of USP homologs were biochemically determined by MST, using purified WT and mutant proteins. […] For these MST experiments, WT and active-site mutants of His6-USPSa were first fluorescently labeled using a RED-Tris NTA Monolith His-Tag labeling kit (Nanotemper, Technologies, Inc). For labeling, the proteins were diluted to a concentration of 800 nM in binding buffer (50 mM potassium phosphate, pH 8.0, 800 mM NaCl, and 0.05% Tween 20), mixed with an equal volume of RED-Tris-NTA dye (80 nM), and incubated on ice in the dark for 30 min. The stock solutions of ligands (c-di-AMP, c-di-GMP, ATP, AMP, c-AMP) were serially diluted with the binding buffer in a 1:1 ratio during each dilution step. The labeled proteins and the ligand dilutions were then mixed in a 1:1 ratio and incubated on ice in the dark for 30 min.
(§2) The samples were then loaded into Monolith standard-treated capillaries in triplicate, and the changes in fluorescence were measured with 40% LED power and 20% IR-laser power for an on-time of 20-s at 23 °C. To determine the binding affinity, the ligand-dependent changes in the intensity of the initial fluorescence, or the thermophoretic mobility, were analyzed according to the law of mass action in a standard fitting mode of MO.Affinity analysis software (version 2.3). To exclude the possibility of nonspecific binding of the ligand to the His6-tag (on USPSa) or ligand-induced USP adsorption to labware or due to aggregation, we performed His6-peptide and EDTA tests, respectively ([91]). In the His6-peptide test, a control His6-peptide was used instead of USP in the binding assay described above, and if no change in initial fluorescence occurred, this confirmed the USP-specific binding of ligands. In the EDTA test, the binding buffer additionally contained 50 mM EDTA to disrupt the interaction between His6-USP and the RED-Tris-NTA dye. The complete loss of the ligand-induced initial fluorescence change in this assay confirmed that this change was neither because of protein aggregation nor because of protein adsorption to labware.
(§3) The Ka values of WT USPSa for c-di-AMP or AMP were set to 100% relative affinity, and the binding affinities of the other nucleotides (Fig. 1C), or USPSa mutants (Fig. 4E), or USP homologs (Fig. 6, B and C) were depicted as percent values compared with the values of the WT USPSa.

USPSa-H331A = molecular target: T3, USPSa-H331A (Staphylococcus aureus, UniProt A0A7U7EVR3, H331A); experiment: as above; details: H331A mutant; MST, initial fluorescence; read-out: Dissociation Constant (KD) ± Standard Deviation
T3 sequence (A0A7U7EVR3 213-364 H331A): T2 sequence (A0A7U7EVR3 213-364 S246A)
Experimental: as §1, §2, §3

USPSa-A242G = molecular target: T4, USPSa-A242G (Staphylococcus aureus, UniProt A0A7U7EVR3, A242G); experiment: as above
T4 sequence (A0A7U7EVR3 213-364 A242G): T2 sequence (A0A7U7EVR3 213-364 S246A)
Experimental: as §1, §2, §3

USPSa-L344A = molecular target: T5, USPSa-L344A (Staphylococcus aureus, UniProt A0A7U7EVR3, L344A); experiment: as above; details: L344A mutant; MST, initial fluorescence; read-out: Dissociation Constant (KD) ± Standard Deviation
T5 sequence (A0A7U7EVR3 213-364 L344A): T2 sequence (A0A7U7EVR3 213-364 S246A)
Experimental: as §1, §2, §3

USPSa-S244D = molecular target: T6, USPSa-S244D (Staphylococcus aureus, UniProt A0A7U7EVR3, S244D); experiment: as above; details: S244D mutant
T6 sequence (A0A7U7EVR3 213-364 S244D): T2 sequence (A0A7U7EVR3 213-364 S246A)
Experimental: as §1, §2, §3

USPSa-Y281F = molecular target: T7, USPSa-Y281F (Staphylococcus aureus, UniProt A0A7U7EVR3, Y281F); experiment: as above; details: Y281F mutant; MST, initial fluorescence; read-out: Dissociation Constant (KD) ± Standard Deviation
T7 sequence (A0A7U7EVR3 213-364 Y281F): T2 sequence (A0A7U7EVR3 213-364 S246A)
Experimental: as §1, §2, §3

USPSa-Q280A = USPSa-Q280A (Staphylococcus aureus, UniProt A0A7U7EVR3, Q280A); experiment: as above; details: Q280A mutant, MST, read-out: Dissociation Constant (KD) ± Standard Deviation
Experimental: as §1, §2, §3

USPSa-K282A = USPSa-K282A (Staphylococcus aureus, UniProt A0A7U7EVR3, K282A); experiment: as above; details: K282A mutant, MST, read-out: Dissociation Constant (KD) ± Standard Deviation
Experimental: as §1, §2, §3

USPSa-V310A = USPSa-V310A (Staphylococcus aureus, UniProt A0A7U7EVR3, V310A); experiment: as above; details: V310A mutant, MST, read-out: Dissociation Constant (KD) ± Standard Deviation
Experimental: as §1, §2, §3

USPSa-Y248A = molecular target: T8, USPSa-Y248A (Staphylococcus aureus, UniProt A0A7U7EVR3, Y248A); experiment: as above; details: Y248A mutant; MST, initial fluorescence; read-out: Dissociation Constant (KD) ± Standard Deviation
T8 sequence (A0A7U7EVR3 213-364 Y248A): T2 sequence (A0A7U7EVR3 213-364 S246A)
Experimental: as §1, §2, §3

USPSa-N249A = molecular target: T9, USPSa-N249A (Staphylococcus aureus, UniProt A0A7U7EVR3, N249A); experiment: as above; details: N249A mutant
T9 sequence (A0A7U7EVR3 213-364 N249A): T2 sequence (A0A7U7EVR3 213-364 S246A)
Experimental: as §1, §2, §3

USPSa-S244A = experiment: as above; parameters: species or system Staphylococcus aureus; details: S244A mutant
Experimental: as §1, §2, §3

USPSa-K277A = molecular target: T10, USPSa-K277A (Staphylococcus aureus, UniProt A0A7U7EVR3, K277A); experiment: MicroScale Thermophoresis (thermophoretic mobility change) nucleotide binding; details: K277A mutant; MST, change in thermophoretic mobility; read-out: Dissociation Constant (KD) ± Standard Deviation
T10 sequence (A0A7U7EVR3 213-364 K277A): T2 sequence (A0A7U7EVR3 213-364 S246A)
Experimental: as §1, §2, §3

USPSa-R279A = USPSa-R279A (Staphylococcus aureus, UniProt A0A7U7EVR3, R279A); experiment: as above; details: R279A mutant; MST, change in thermophoretic mobility; read-out: Dissociation Constant (KD) ± Standard Deviation
Experimental: as §1, §2, §3

USPSa-WT [4] = molecular target: T1, USPSa-WT; experiment: as above; details: MST, change in thermophoretic mobility, read-out: Dissociation Constant (KD) ± Standard Deviation
Experimental: as §1, §2, §3

untagged USPSa = experiment: fluorescence-based thermal shift (ThermoFluor) assay; format: binding, Staphylococcus aureus; details: 7.5-fold molar excess of c-di-AMP; purified untagged USPSa
Experimental: The plates were then sealed with Microseal “B” Seal Seals (Bio-Rad Laboratories) and heated in a CFX96 real-time PCR system (Bio-Rad Laboratories) from 25 °C to 99 °C in increments of 0.5 °C. Fluorescence changes in the plate wells were monitored simultaneously with a charge-coupled device camera, utilizing excitation and emission wavelengths of 497 nm and 520 nm, respectively.

USPMtb-WT = molecular target: T11, USPMtb-WT (Mycobacterium tuberculosis, UniProt P9WGL3); experiment: biochemical; format: binding
T11 construct: made in house; host or cells: E. coli C41 (DE3), pTB146, no KdpE co-expression

## Nc1ncnc2c1ncn2[C@@H]1O[C@@H]2COP(=O)(O)O[C@H]3[C@@H](O)[C@H](n4cnc5c(N)ncnc54)O[C@@H]3COP(=O)(O)O[C@H]2[C@H]1O [c-di-AMP, cyclic-di-adenosine monophosphate]
USPSp-WT
  Kd: 67500 ± 13000 nM
USPSa-WT [1]; Dissociation Constant (KD) ± Standard Deviation
  Kd: 500 nM and 530 nM
[2]
  c-di-AMP binding in vitro (in words): deficient in c-di-AMP binding
USPSa2-WT
  Kd: 125000 ± 15000 nM
[3]
  Kd: 2000 ± 180 nM
USPSa-S246A
  Kd: 1300 ± 190 nM
USPSa-H331A
  Kd: 2370 ± 1320 nM
USPSa-A242G
  improvement of binding affinity versus WT USPSa: ~50 fold
USPSa-A242G; A242G mutant, MST, initial fluorescence, read-out: Dissociation Constant (KD) ± Standard Deviation
  Kd: 10 ± 10 nM
USPSa-L344A
  Kd: 8840 ± 1090 nM
USPSa-S244D
  binding (in words): completely abolished
USPSa-S244D; MST, initial fluorescence
  Dissociation Constant (KD) ± Standard Deviation: No Binding Observed
USPSa-Y281F
  Kd: 1790 ± 840 nM
USPSa-Q280A
  Kd: 870 ± 60 nM
USPSa-K282A
  Kd: 600 ± 240 nM
USPSa-V310A
  Kd: 1710 ± 420 nM
USPSa-Y248A
  Kd: 4220 ± 110 nM
USPSa-N249A
  binding affinity versus WT USPSa (in words): significant reduction
USPSa-N249A; MST, initial fluorescence, read-out: Dissociation Constant (KD) ± Standard Deviation
  Kd: 7840 ± 340 nM
USPSa-S244A
  binding in MST analysis (in words): complete loss
USPSa-S244A; MST, initial fluorescence
  Dissociation Constant (KD) ± Standard Deviation: No Binding Observed
USPSa-K277A
  Kd: 10100 ± 240 nM
USPSa-R279A
  Kd: 8670 ± 750 nM
USPSa-WT [4]
  Kd: 3130 ± 750 nM
Untagged USPSa
  increase of melting temperature of USPSa: 10 °C
USPMtb-WT
  Kd: 666000 ± 168000 nM

## Nc1nc2c(ncn2[C@@H]2O[C@@H]3COP(=O)(O)O[C@H]4[C@@H](O)[C@H](n5cnc6c(=O)[nH]c(N)nc65)O[C@@H]4COP(=O)(O)O[C@H]3[C@H]2O)c(=O)[nH]1 [c-di-GMP]
USPSa-WT [1]
  Dissociation Constant (KD) ± Standard Deviation: No Binding Observed

## Nc1ncnc2c1ncn2[C@@H]1O[C@@H]2COP(=O)(O)O[C@H]3[C@@H](O)[C@H](n4cnc5c(N)ncnc54)O[C@@H]3COP(=O)(O)O[C@H]3[C@@H](O)[C@H](n4cnc5c(N)ncnc54)O[C@@H]3COP(=O)(O)O[C@H]2[C@H]1O [c-tri-AMP]
USPSa-WT [1]
  Dissociation Constant (KD) ± Standard Deviation: No Binding Observed
